System: breast cancer (BT-474)
Assay: Anticancer activity assay (WST-8 cell growth), BT-474
Assay type: cell-based
Conditions: Homo sapiens, BT-474, 96 h, read-out: IC50 (nM) BT-474
Procedure: The compounds of the present invention were assayed for inhibitory activity against 7 cancer cell lines as breast cancer (BT-474), human epithelial cancer (A-431), non-small cell lung cancer (NCI-H460), colon cancer (HT-29), colon cancer (SW-620), breast cancer (MDA-MB-231) and breast cancer (MCF-7).
Briefly, a suspension of each cancer cell line was serially diluted, and plated at a density of 2˜3×10^3 cells/well into 96-well microplates, followed by incubation at 37° C. for 4 day in a 5% CO2 atmosphere. Cell growth in a monolayer was measured using WST-8 reagemt (Dojindo, Japan).
IC50 values of the compounds against the cancer cell lines were calculated as compound concentrations at which the cells were grown by 50% OD of the control.

CC[C@H](C)[C@@H]([C@@H](CC(=O)N1C[C@H](OC)C[C@@H]1[C@H](OC)[C@@H](C)C(=O)N[C@@H](C)C(=O)c1c(F)cccc1F)OC)N(C)C(=O)[C@@H](NC(=O)[C@@H](NC)C(C)C)C(C)C [Compound I-17, (S)—N-((3R,4S,5S)-1-((2R,4R)-2-((1R,2R)-3-(((S)-1-(2,6-difluorophenyl)-1-oxopropan-2-yl)amino)-1-methoxy-2-methyl-3-oxopropyl)-4-methoxypyrrolidin-1-yl)-3-methoxy-5-methyl-1-oxoheptan-4-yl)-N,3-dimethyl-2-((S)-3-methyl-2-(methylamino)butaneamido)butanamide]
IC50: 0.25 nM

CC[C@H](C)[C@@H]([C@@H](CC(=O)N1C[C@H](OC)CC1[C@H](OC)[C@@H](C)C(=O)NCC(=O)c1ccc(F)cc1C)OC)N(C)C(=O)[C@@H](NC(=O)[C@H](C(C)C)N(C)C)C(C)C (some centres unmarked) [Compound I-26]
IC50: 0.79 nM

CC[C@H](C)[C@@H]([C@@H](CC(=O)N1C[C@H](OC)C[C@H]1[C@H](OC)[C@@H](C)C(=O)NCCc1ccccn1)OC)N(C)C(=O)[C@@H](NC(=O)[C@@H](NC)C(C)C)C(C)C [Compound I-38, (2S)—N-((3R,4S)-3-methoxy-1-((2S,4R)-4-methoxy-2-((1R,2R)-1-methoxy-2-methyl-3-oxo-3-((2-(pyridin-2-yl)ethyl)amino)propyl)pyrrolidin-1-yl)-5-methyl-1-oxoheptan-4-yl)-N,3-dimethyl-2-((S)-3-methyl-2-(methylamino)butaneamido)butanamide]
IC50: 1.32 nM

CC[C@H](C)[C@@H]([C@@H](CC(=O)N1C[C@H](OC)C[C@@H]1[C@H](OC)[C@@H](C)C(=O)NCC(=NO)c1cc(Br)ccc1C)OC)N(C)C(=O)[C@@H](NC(=O)[C@H](C(C)C)N(C)C)C(C)C [Compound I-22, (S)—N-((3R,4S,5S)-1-((2R,4R)-2-((1R,2R)-3-((2-(5-bromo-2-methylphenyl)-2-(hydroxyimino)ethyl)amino)-1-methoxy-2-methyl-3-oxopropyl)-4-methoxypyrrolidin-1-yl)-3-methoxy-5-methyl-1-oxoheptan-4-yl)-2-((S)-2-(dimethylamino)-3-methylbutaneamido)-N,3-dimethylbutanamide]
IC50: 0.91 nM

CC[C@H](C)[C@@H]([C@@H](CC(=O)N1C[C@@H](O)C[C@H]1[C@H](OC)[C@@H](C)C(=O)NCCc1c(F)cccc1F)OC)N(C)C(=O)[C@@H](NC(=O)[C@@H](NC)C(C)C)C(C)C [Compound I-42, (2S)—N-((3R,4S)-1-((2S,4S)-2-((1R,2R)-3-((2,6-difluorophenethyl)amino)-1-methoxy-2-methyl-3-oxopropyl)-4-hydroxypyrrolidin-1-yl)-3-methoxy-5-methyl-1-oxoheptan-4-yl)-N,3-dimethyl-2-((S)-3-methyl-2-(methylamino)butaneamido)butanamide]
IC50: 0.74 nM

CC[C@H](C)[C@@H]([C@@H](CC(=O)N1C[C@H](OC)CC1[C@H](OC)[C@@H](C)C(=O)NCCc1cccc(F)c1)OC)N(C)C(=O)[C@@H](NC(=O)[C@@H](NC)C(C)C)C(C)C (some centres unmarked) [Compound I-2]
IC50: 0.7 nM

CC[C@H](C)[C@@H]([C@@H](CC(=O)N1C[C@H](OC)C[C@@H]1[C@H](OC)[C@@H](C)C(=O)N[C@H](C)C(=O)c1cccc(OC)c1)OC)N(C)C(=O)[C@@H](NC(=O)[C@@H](NC)C(C)C)C(C)C [Compound I-14, (S)—N-((3R,4S,5S)-3-methoxy-1-((2R,4R)-4-methoxy-2-((1R,2R)-1-methoxy-3-(((R)-1-(3-methoxyphenyl)-1-oxopropan-2-yl)amino)-2-methyl-3-oxopropyl)pyrrolidin-1-yl)-5-methyl-1-oxoheptan-4-yl)-N,3-dimethyl-2-((S)-3-methyl-2-(methylamino)butaneamido)butanamide]
IC50: 0.29 nM

CC[C@H](C)[C@@H]([C@@H](CC(=O)N1C[C@H](OC)C[C@H]1[C@H](OC)[C@@H](C)C(=O)NCCc1cccs1)OC)N(C)C(=O)[C@@H](NC(=O)[C@@H](NC)C(C)C)C(C)C [Compound I-39, (2S)—N-((3R,4S)-3-methoxy-1-((2S,4R)-4-methoxy-2-((1R,2R)-1-methoxy-2-methyl-3-oxo-3-((2-(thiophen-2-yl)ethyl)amino)propyl)pyrrolidin-1-yl)-5-methyl-1-oxoheptan-4-yl)-N,3-dimethyl-2-((S)-3-methyl-2-(methylamino)butaneamido)butanamide]
IC50: 0.67 nM

CC[C@H](C)[C@@H]([C@@H](CC(=O)N1CSC[C@@H]1[C@H](OC)[C@@H](C)C(=O)NCCc1c(F)cccc1F)OC)N(C)C(=O)[C@@H](NC(=O)[C@@H](NC)C(C)C)C(C)C [Compound I-32, (S)—N-((3R,4S,5S)-1-((S)-4-((1R,2R)-3-((2,6-difluorophenethyl)amino)-1-methoxy-2-methyl-3-oxopropyl)thiazolidin-3-yl)-3-methoxy-5-methyl-1-oxoheptan-4-yl)-N,3-dimethyl-2-((S)-3-methyl-2-(methylamino)butaneamido)butanamide]
IC50: 0.64 nM

CC[C@H](C)[C@@H]([C@@H](CC(=O)N1C[C@H](OC)C[C@@H]1[C@H](OC)[C@@H](C)C(=O)NCCc1c(F)cccc1F)OC)N(C)C(=O)[C@@H](NC(=O)[C@@H](NC)C(C)C)C(C)C [Compound I-1, (S)—N-((3R,4S,5S)-1-((2R,4R)-2-((1R,2R)-3-((2,6-difluorophenethyl)amino)-1-methoxy-2-methyl-3-oxopropyl)-4-methoxypyrrolidin-1-yl)-3-methoxy-5-methyl-1-oxoheptan-4-yl)-N,3-dimethyl-2-((S)-3-methyl-2-(methylamino)butaneamido)butanamide]
IC50: 0.12 nM

CC[C@H](C)[C@@H]([C@@H](CC(=O)N1C[C@@H](N)C[C@H]1[C@H](OC)[C@@H](C)C(=O)NCCc1c(F)cccc1F)OC)N(C)C(=O)[C@@H](NC(=O)[C@H](C(C)C)N(C)C)C(C)C [Compound I-44, (2S)—N-((3R,4S)-1-((2S,4S)-4-amino-2-((1R,2R)-3-((2,6-difluorophenethyl)amino)-1-methoxy-2-methyl-3-oxopropyl)pyrrolidin-1-yl)-3-methoxy-5-methyl-1-oxoheptan-4-yl)-2-((S)-2-(dimethylamino)-3-methylbutaneamido)-N,3-dimethylbutanamide]
IC50: 0.17 nM

CC[C@H](C)[C@@H]([C@@H](CC(=O)N1C[C@H](OC)C[C@H]1[C@H](OC)[C@@H](C)C(=O)NCC(=O)c1ccc(OC)cc1F)OC)N(C)C(=O)[C@@H](NC(=O)[C@@H](NC)C(C)C)C(C)C [Compound I-31]
IC50: 0.54 nM

CC[C@H](C)[C@@H]([C@@H](CC(=O)N1C[C@H](OC)C[C@@H]1[C@H](OC)[C@@H](C)C(=O)N[C@H](C)C(=O)c1ccc(OC)cc1)OC)N(C)C(=O)[C@@H](NC(=O)[C@@H](NC)C(C)C)C(C)C [Compound I-15, (S)—N-((3R,4S,5S)-3-methoxy-1-((2R,4R)-4-methoxy-2-((1R,2R)-1-methoxy-3-(((R)-1-(4-methoxyphenyl)-1-oxopropan-2-yl)amino)-2-methyl-3-oxopropyl)pyrrolidin-1-yl)-5-methyl-1-oxoheptan-4-yl)-N,3-dimethyl-2-((S)-3-methyl-2-(methylamino)butaneamido)butanamide]
IC50: 0.51 nM

CC[C@H](C)[C@@H]([C@@H](CC(=O)N1C[C@H](OC)C[C@H]1[C@H](OC)[C@@H](C)C(=O)NCC(=O)c1ccc(F)cc1)OC)N(C)C(=O)[C@@H](NC(=O)[C@@H](NC)C(C)C)C(C)C [Compound I-30]
IC50: 0.77 nM

Reference: patent US9278996B2, “Dolastatin-10 derivative, method of producing the same and anticancer drug composition containing the same” (CELLTRION, INC., priority 2012, dated 2016)
